This passage reports Ki and kinact results from ChEMBL document CHEMBL1128787, “Design of a new selective cysteine protease inactivator and its mechanistic implications” (Bioorg Med Chem Lett, 1995).

The target in experiment [1] is T1, Cathepsin B (Homo sapiens, UniProt P07858). Nature of the experiment: Kinetic parameter (Ki mM) was evaluated for the inactivation of cathepsin B.
Experiment [2] concerns the target T2, Papain (Carica papaya, UniProt P00784).
T2 sequence (P00784 whole entry): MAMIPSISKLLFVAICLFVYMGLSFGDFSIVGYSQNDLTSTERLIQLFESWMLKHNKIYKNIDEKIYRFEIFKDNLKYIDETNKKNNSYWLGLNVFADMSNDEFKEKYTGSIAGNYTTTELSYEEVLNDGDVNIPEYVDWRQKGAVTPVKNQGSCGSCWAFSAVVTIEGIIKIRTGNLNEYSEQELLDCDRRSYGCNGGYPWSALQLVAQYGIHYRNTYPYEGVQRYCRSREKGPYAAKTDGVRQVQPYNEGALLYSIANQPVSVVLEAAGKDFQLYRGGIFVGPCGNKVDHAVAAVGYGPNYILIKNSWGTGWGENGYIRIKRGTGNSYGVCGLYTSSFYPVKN
Nature of the experiment: Kinetic parameter (Ki 1/min) was evaluated for the inactivation of papain.

The target in experiment [3] is T2, Papain. Put plainly: Kinetic parameter (Ki mM) was evaluated for the inactivation of papain.
Experiment [4] has as its target T1, Cathepsin B. Put plainly: Kinetic parameter (kinact 1/min) was evaluated for the inactivation of cathepsin B.

Consider `O=C(N[C@@H](Cc1ccccc1)[C@H]1CO1)OCc1ccccc1`, for which the values for the Ki at Cathepsin B [1], at Papain [2] and on Papain [3] were 367 µM, 0.208 min⁻¹ and 574 µM, respectively. Moreover, the kinact on Cathepsin B [4] came to 0.087 min⁻¹.
